Reference: PubChem BioAssay AID1259407 (Chemical Carcinogenesis Research Information System (CCRIS), 2018)
The source made the active and inactive calls. No rule for the calls is given here.

Tested on: CCRIS mutagenicity, Ames/micronucleus/aberration tests
Test: CCRIS mutagenicity studies
[1] = Test System: AMES SALMONELLA TYPHIMURIUM, Strain/Indicator: TA98, Metabolic Activation: NONE, Method: STANDARD PLATE
[2] = Test System: AMES SALMONELLA TYPHIMURIUM, Strain/Indicator: TA98, Metabolic Activation: RAT, LIVER, S-9, AROCLOR 1254, Method: STANDARD PLATE
[3] = Test System: AMES SALMONELLA TYPHIMURIUM, Strain/Indicator: TA100, Metabolic Activation: NONE, Method: STANDARD PLATE
[4] = Test System: AMES SALMONELLA TYPHIMURIUM, Strain/Indicator: TA100, Metabolic Activation: RAT, LIVER, S-9, AROCLOR 1254, Method: STANDARD PLATE
[5] = Test System: AMES SALMONELLA TYPHIMURIUM, Strain/Indicator: TA98, Metabolic Activation: NONE, Method: PREINCUBATION
[6] = Test System: AMES SALMONELLA TYPHIMURIUM, Strain/Indicator: TA100, Metabolic Activation: NONE, Method: PREINCUBATION

Which results are given for `C=CCOc1ccccc1OCC(O)CNC(C)C` (stereo unspecified)?
mutagenic call (Test System: AMES SALMONELLA TYPHIMURIUM, Strain/Indicator: TA98, Metabolic Activation: NONE): inactive; negative; mutagenic call [1]: inactive; negative; mutagenic call (Test System: AMES SALMONELLA TYPHIMURIUM, Strain/Indicator: TA98, Metabolic Activation: RAT, LIVER, S-9, AROCLOR 1254): inactive; negative; mutagenic call [2]: inactive; negative; mutagenic call (Test System: AMES SALMONELLA TYPHIMURIUM, Strain/Indicator: TA100, Metabolic Activation: NONE): inactive; negative; mutagenic call [3]: inactive; negative; mutagenic call (Test System: AMES SALMONELLA TYPHIMURIUM, Strain/Indicator: TA100, Metabolic Activation: RAT, LIVER, S-9, AROCLOR 1254): inactive; negative; mutagenic call [4]: inactive; negative; mutagenic call (Test System: AMES SALMONELLA TYPHIMURIUM, Strain/Indicator: TA1535, Metabolic Activation: NONE): inactive; negative; mutagenic call (Test System: AMES SALMONELLA TYPHIMURIUM, Strain/Indicator: TA1535, Metabolic Activation: RAT, LIVER, S-9, AROCLOR 1254): inactive; negative; mutagenic call (Test System: AMES SALMONELLA TYPHIMURIUM, Strain/Indicator: TA1537, Metabolic Activation: NONE): inactive; negative; mutagenic call (Test System: AMES SALMONELLA TYPHIMURIUM, Strain/Indicator: TA1537, Metabolic Activation: RAT, LIVER, S-9, AROCLOR 1254): inactive; negative; mutagenic call (Test System: CHINESE HAMSTER V-79, Strain/Indicator: V-79/6-THIOGUANINE, Metabolic Activation: NONE, Method: REPLATING): inactive; negative; mutagenic call (Test System: CHINESE HAMSTER V-79, Strain/Indicator: V-79/6-THIOGUANINE, Metabolic Activation: RAT, HEPATOCYTES, Method: REPLATING): inactive; negative; mutagenic call (Test System: UDS HUMAN HEPATOCYTES, Strain/Indicator: THY INCORP, Metabolic Activation: NONE, Method: AUTORADIOGRAPHY): inactive; negative; mutagenic call (Test System: UDS RAT HEPATOCYTES, Strain/Indicator: THY INCORP, Metabolic Activation: NONE, Method: AUTORADIOGRAPHY): inactive; negative

`CCCCl` was tested. Which mutagenic call (End Point: In vitro micronucleus, Test System: Chinese Hamster Ovary (CHO-WBL) cells, Metabolic Activation: None) did it give?
The mutagenic call was “inactive; negative”.

What does the source list for `c1ccc2c(c1)c1ccccc1c1ccccc21`?
mutagenic call (Test System: AMES SALMONELLA TYPHIMURIUM, Strain/Indicator: TA98, Metabolic Activation: RAT, LIVER, S-9, AROCLOR 1254, Method: FLUCTUATION): active; positive; mutagenic call [4]: active; positive

`Oc1cccc2c1ccc1c3ccccc3ccc21` was tested. Which mutagenic call [2] did it give?
The mutagenic call was “inactive; negative”.

What about the mutagenic call [3] of the same compound?
The mutagenic call was “inactive; negative”.

Which results are given for `O[C@H]1[C@H]2O[C@H]2c2ccc3c(ccc4ccccc43)c2[C@@H]1O`?
mutagenic call [5]: active; positive; mutagenic call (Test System: CHINESE HAMSTER V-79, Strain/Indicator: V-79/6-THIOGUANINE, Metabolic Activation: NONE): active; positive

For `CC(C)(C)OC(=O)C=Cc1ccc([N+](=O)[O-])o1`, which mutagenic call [5] is on record?
The mutagenic call was “active; positive”.

Which mutagenic call (Test System: AMES SALMONELLA TYPHIMURIUM, Strain/Indicator: TM677, Metabolic Activation: NONE, Method: PREINCUBATION) does the source give for `CC(=O)OC[C@@]1(O)CC23CC[C@@H]4c5ccoc5CC[C@@]4(C)[C@@H]2CC[C@@H]1C3` here?
The mutagenic call was “inactive; negative”.

What about the mutagenic call (Test System: AMES SALMONELLA TYPHIMURIUM, Strain/Indicator: TM677, Metabolic Activation: RAT, LIVER, S-9, AROCLOR 1254, Method: PREINCUBATION) of the same compound?
The mutagenic call was “inactive; negative”.

For `Cc1cccc2c3c(c4cc5ccccc5cc4c12)O3`, which mutagenic call [5] is on record?
Its mutagenic call is “active; positive”.

For `COC(=O)c1cc2ccc3cccnc3c2[nH]1`, which mutagenic call [1] is on record?
The mutagenic call was “inactive; negative”.

And the mutagenic call (Test System: E. COLI, Strain/Indicator: WP2 TM9, Metabolic Activation: NONE, Method: STANDARD PLATE)?
The mutagenic call was “inactive; negative”.

How did the mutagenic call (Test System: CHINESE HAMSTER V-79, Strain/Indicator: V-79 (HPRT)/6-THIOGUANINE, Metabolic Activation: NONE) turn out when `CC(=O)CC1CCC(=O)/C=C\C(=O)OC(CC(C)=O)CCC(=O)/C=C\C(=O)O1` (stereo unspecified) was run?
Its mutagenic call is “active; positive”.

And the mutagenic call (Test System: CHINESE HAMSTER V-79, Strain/Indicator: V-79 (HPRT)/6-THIOGUANINE, Metabolic Activation: RAT, LIVER, S-9, 3-METHYLCHOLANTHRENE)?
Its mutagenic call is “active; positive”.

For `Cl[Si](Cl)Cl`, which mutagenic call (Test System: Mouse lymphoma, Strain/Indicator: L5178Y (tk+/tk-), Metabolic Activation: None, Method: Suspension/plate) is on record?
Its mutagenic call is “inactive; negative”.

And the mutagenic call (Test System: Mouse lymphoma, Strain/Indicator: L5178Y (tk+/tk-), Metabolic Activation: Rat, Liver, S-9, Aroclor 1254, Method: Suspension/plate)?
Its mutagenic call is “inactive; negative”.

How did the mutagenic call [5] turn out when `O=[N+]([O-])c1ccc(CO)c([N+](=O)[O-])c1` was run?
The mutagenic call was “active; positive”.

What about the mutagenic call (Test System: AMES SALMONELLA TYPHIMURIUM, Strain/Indicator: TA98, Metabolic Activation: RAT, LIVER, S-9, AROCLOR, Method: PREINCUBATION) of the same compound?
The mutagenic call was “active; positive”.

And the mutagenic call (Test System: AMES SALMONELLA TYPHIMURIUM, Strain/Indicator: TA98, Metabolic Activation: RAT, LIVER, S-9, PHENOBARBITAL AND 5,6-BENZOFLAVONE, Method: PREINCUBATION)?
Its mutagenic call is “active; positive”.

What about the mutagenic call [6] of the same compound?
The mutagenic call was “active; positive”.

What about the mutagenic call (Test System: AMES SALMONELLA TYPHIMURIUM, Strain/Indicator: TA100, Metabolic Activation: RAT, LIVER, S-9, PHENOBARBITAL AND 5,6-BENZOFLAVONE, Method: PREINCUBATION) of the same compound?
Its mutagenic call is “active; positive”.

How did the mutagenic call (Test System: AMES SALMONELLA TYPHIMURIUM, Strain/Indicator: TA97, Metabolic Activation: NONE, Method: STANDARD PLATE) turn out when `CN=C1C=CC(=C(c2ccc(N(C)C)cc2)c2ccc(N(C)C)cc2)C=C1` was run?
The mutagenic call was “inactive; negative”.

And the mutagenic call (Test System: AMES SALMONELLA TYPHIMURIUM, Strain/Indicator: TA97, Metabolic Activation: RAT, LIVER, S-9, AROCLOR 1254, Method: STANDARD PLATE)?
The mutagenic call was “inactive; negative”.

And the mutagenic call [1]?
Its mutagenic call is “inactive; negative”.

What about the mutagenic call [2] of the same compound?
The mutagenic call was “inactive; negative”.

And the mutagenic call [3]?
Its mutagenic call is “inactive; negative”.

What about the mutagenic call [4] of the same compound?
Its mutagenic call is “inactive; negative”.

And the mutagenic call (Test System: AMES SALMONELLA TYPHIMURIUM, Strain/Indicator: TA104, Metabolic Activation: NONE, Method: STANDARD PLATE)?
The mutagenic call was “inactive; negative”.

What about the mutagenic call (Test System: AMES SALMONELLA TYPHIMURIUM, Strain/Indicator: TA104, Metabolic Activation: RAT, LIVER, S-9, AROCLOR 1254, Method: STANDARD PLATE) of the same compound?
The mutagenic call was “inactive; negative”.

Which results are given for `O=C(CCc1ccc(O)cc1)c1c(O)cc(O)cc1O`?
mutagenic call (Test System: AMES SALMONELLA TYPHIMURIUM, Strain/Indicator: TA98, Metabolic Activation: HAMSTER, LIVER, S-9, AROCLOR 1254, Method: STANDARD PLATE): inactive; negative; mutagenic call [1]: inactive; negative; mutagenic call [2]: inactive; negative; mutagenic call (Test System: AMES SALMONELLA TYPHIMURIUM, Strain/Indicator: TA100, Metabolic Activation: HAMSTER, LIVER, S-9, AROCLOR 1254, Method: STANDARD PLATE): inactive; negative; mutagenic call [3]: inactive; negative; mutagenic call [4]: inactive; negative; mutagenic call (Test System: AMES SALMONELLA TYPHIMURIUM, Strain/Indicator: TA1535, Metabolic Activation: HAMSTER, LIVER, S-9, AROCLOR 1254, Method: STANDARD PLATE): inactive; negative; mutagenic call (Test System: AMES SALMONELLA TYPHIMURIUM, Strain/Indicator: TA1535, Metabolic Activation: NONE, Method: STANDARD PLATE): inactive; negative; mutagenic call (Test System: AMES SALMONELLA TYPHIMURIUM, Strain/Indicator: TA1535, Metabolic Activation: RAT, LIVER, S-9, AROCLOR 1254, Method: STANDARD PLATE): inactive; negative; mutagenic call (Test System: AMES SALMONELLA TYPHIMURIUM, Strain/Indicator: TA1537, Metabolic Activation: HAMSTER, LIVER, S-9, AROCLOR 1254, Method: STANDARD PLATE): inactive; negative; mutagenic call (Test System: AMES SALMONELLA TYPHIMURIUM, Strain/Indicator: TA1537, Metabolic Activation: NONE, Method: STANDARD PLATE): inactive; negative; mutagenic call (Test System: AMES SALMONELLA TYPHIMURIUM, Strain/Indicator: TA1537, Metabolic Activation: RAT, LIVER, S-9, AROCLOR 1254, Method: STANDARD PLATE): inactive; negative; mutagenic call (Test System: AMES SALMONELLA TYPHIMURIUM, Strain/Indicator: TA1538, Metabolic Activation: HAMSTER, LIVER, S-9, AROCLOR 1254, Method: STANDARD PLATE): inactive; negative; mutagenic call (Test System: AMES SALMONELLA TYPHIMURIUM, Strain/Indicator: TA1538, Metabolic Activation: NONE, Method: STANDARD PLATE): inactive; negative; mutagenic call (Test System: AMES SALMONELLA TYPHIMURIUM, Strain/Indicator: TA1538, Metabolic Activation: RAT, LIVER, S-9, AROCLOR 1254, Method: STANDARD PLATE): inactive; negative

`O=C(ON(OCc1ccccc1)C(=O)c1ccccc1)c1ccccc1` was tested. Which mutagenic call [3] did it give?
Its mutagenic call is “active; positive”.

How did the mutagenic call [5] turn out when `O=Cc1c(O)cc2c(c1O)C(=O)c1ccccc1C2=O` was run?
Its mutagenic call is “inactive; negative”.

What about the mutagenic call (Test System: AMES SALMONELLA TYPHIMURIUM, Strain/Indicator: TA98, Metabolic Activation: RAT, LIVER, S-9, PCB, Method: PREINCUBATION) of the same compound?
The mutagenic call was “inactive; negative”.

What about the mutagenic call [6] of the same compound?
Its mutagenic call is “inactive; negative”.

What about the mutagenic call (Test System: AMES SALMONELLA TYPHIMURIUM, Strain/Indicator: TA100, Metabolic Activation: RAT, LIVER, S-9, PCB, Method: PREINCUBATION) of the same compound?
Its mutagenic call is “inactive; negative”.
